Test results published in patent US7063946B2, “Methods, reagents, kits and apparatus for protein function analysis” (Meso Scale Technologies, LLC., priority 2001, dated 2006).

Tests used:
Kit = molecular target: T1, Kit (Mus musculus, UniProt P05532); test: Kinase inhibitor profiling, pEY phosphorylation; type: biochemical
T1 construct: specificity data for proteins generated from a library of eighteen full-length clones; biotin on random lysines (biotin-Lys-tRNA); host or cells: rabbit reticulocyte lysate, coupled transcription/translation (TnT, Promega)

EphB4 = molecular target: T2, EphB4 (Mus musculus, UniProt P54761); test: Kinase inhibitor profiling, pEY phosphorylation; type: biochemical
T2 construct: specificity data for proteins generated from a library of eighteen full-length clones; host or cells: rabbit reticulocyte lysate, TnT coupled in vitro transcription/translation (cell-free)
T2 sequence (P54761 16-987): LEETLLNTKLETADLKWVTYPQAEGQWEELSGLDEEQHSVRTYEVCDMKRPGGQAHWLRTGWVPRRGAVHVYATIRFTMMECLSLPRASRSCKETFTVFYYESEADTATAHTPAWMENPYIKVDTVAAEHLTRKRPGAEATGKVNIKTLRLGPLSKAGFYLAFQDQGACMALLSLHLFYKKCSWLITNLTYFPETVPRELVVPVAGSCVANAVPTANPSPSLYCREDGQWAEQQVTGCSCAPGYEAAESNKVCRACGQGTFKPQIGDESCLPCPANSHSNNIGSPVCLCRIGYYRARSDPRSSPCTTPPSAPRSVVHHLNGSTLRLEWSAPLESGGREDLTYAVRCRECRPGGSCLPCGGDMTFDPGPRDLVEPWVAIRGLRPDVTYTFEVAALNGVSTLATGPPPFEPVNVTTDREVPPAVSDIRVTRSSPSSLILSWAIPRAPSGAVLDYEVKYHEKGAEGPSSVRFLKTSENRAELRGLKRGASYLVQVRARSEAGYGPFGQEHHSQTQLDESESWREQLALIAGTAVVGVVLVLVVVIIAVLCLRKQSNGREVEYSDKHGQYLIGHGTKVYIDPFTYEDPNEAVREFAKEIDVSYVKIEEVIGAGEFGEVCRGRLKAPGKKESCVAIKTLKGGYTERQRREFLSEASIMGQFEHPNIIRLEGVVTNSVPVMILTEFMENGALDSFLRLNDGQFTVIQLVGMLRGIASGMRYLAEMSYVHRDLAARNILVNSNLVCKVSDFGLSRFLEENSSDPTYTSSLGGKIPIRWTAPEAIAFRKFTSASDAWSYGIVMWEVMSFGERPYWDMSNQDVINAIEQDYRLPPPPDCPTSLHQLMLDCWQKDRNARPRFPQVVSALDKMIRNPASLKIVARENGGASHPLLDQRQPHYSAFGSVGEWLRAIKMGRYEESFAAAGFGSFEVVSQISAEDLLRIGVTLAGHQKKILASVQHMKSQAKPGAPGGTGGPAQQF

T1 sequence (P05532 25-979): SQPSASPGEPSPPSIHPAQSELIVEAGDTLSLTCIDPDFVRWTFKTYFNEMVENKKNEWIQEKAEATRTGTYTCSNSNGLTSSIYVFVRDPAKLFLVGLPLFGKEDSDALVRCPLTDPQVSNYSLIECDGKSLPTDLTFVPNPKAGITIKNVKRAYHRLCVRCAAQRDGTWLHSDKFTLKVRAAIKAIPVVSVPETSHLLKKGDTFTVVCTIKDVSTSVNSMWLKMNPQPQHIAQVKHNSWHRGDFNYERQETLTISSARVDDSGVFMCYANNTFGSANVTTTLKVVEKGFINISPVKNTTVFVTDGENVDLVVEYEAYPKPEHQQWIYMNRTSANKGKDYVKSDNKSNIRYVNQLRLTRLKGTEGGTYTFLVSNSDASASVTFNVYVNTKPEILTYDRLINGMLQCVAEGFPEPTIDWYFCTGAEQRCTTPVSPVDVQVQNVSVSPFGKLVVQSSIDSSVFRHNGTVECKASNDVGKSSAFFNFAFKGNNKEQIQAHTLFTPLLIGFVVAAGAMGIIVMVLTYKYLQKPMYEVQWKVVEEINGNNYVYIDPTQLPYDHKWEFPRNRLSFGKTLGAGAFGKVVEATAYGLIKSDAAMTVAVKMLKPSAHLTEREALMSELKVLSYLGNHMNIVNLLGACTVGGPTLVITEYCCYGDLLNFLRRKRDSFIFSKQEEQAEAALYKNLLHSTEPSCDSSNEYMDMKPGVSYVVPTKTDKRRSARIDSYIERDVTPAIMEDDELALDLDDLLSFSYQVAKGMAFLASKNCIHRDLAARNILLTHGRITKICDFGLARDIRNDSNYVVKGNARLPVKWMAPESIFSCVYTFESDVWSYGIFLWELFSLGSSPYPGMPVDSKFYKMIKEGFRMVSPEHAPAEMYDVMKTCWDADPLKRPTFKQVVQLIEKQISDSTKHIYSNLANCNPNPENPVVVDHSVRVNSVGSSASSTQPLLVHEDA

## COc1cc2ncnc(Nc3ccc(O)cc3)c2cc1OC [WHI-P131]
Kit
  Inhibition specificity towards pEY phosphorylation at 10X IC50, Kit: H (high inhibition (“H”=less than 25% of the activity remaining))
EphB4
  Inhibition specificity towards pEY phosphorylation at 10X IC50, EphB4: M (medium inhibition (“M”=between 25 to 50% of the activity remaining))

## Cc1ccc(-c2nn(C(C)(C)C)c3ncnc(N)c23)cc1 [PP1]
Kit
  Inhibition specificity towards pEY phosphorylation at 10X IC50, Kit: M (medium inhibition (“M”=between 25 to 50% of the activity remaining))
EphB4
  Inhibition specificity towards pEY phosphorylation at 10X IC50, EphB4: L (low inhibition (“L”=between 50–75% of the activity remaining))

## Cc1cc2ncc(-c3ccc(O)c(O)c3)nc2cc1C [AG-1433]
Kit
  Inhibition specificity towards pEY phosphorylation at 10X IC50, Kit: H (high inhibition (“H”=less than 25% of the activity remaining))
EphB4
  Inhibition specificity towards pEY phosphorylation at 10X IC50, EphB4: H (high inhibition (“H”=less than 25% of the activity remaining))

## COc1c(C=O)c(O)cc2c1C(=O)c1ccccc1C2=O [Damnacanthal]
Kit
  Inhibition specificity towards pEY phosphorylation at 10X IC50, Kit: H (high inhibition (“H”=less than 25% of the activity remaining))
EphB4
  Inhibition specificity towards pEY phosphorylation at 10X IC50, EphB4: H (high inhibition (“H”=less than 25% of the activity remaining))

## COC(=O)c1ccc(NCc2cc(O)ccc2O)cc1 [AG-957]
Kit
  Inhibition specificity towards pEY phosphorylation at 10X IC50, Kit: L (low inhibition (“L”=between 50–75% of the activity remaining))
EphB4
  Inhibition specificity towards pEY phosphorylation at 10X IC50, EphB4: L (low inhibition (“L”=between 50–75% of the activity remaining))

## CC(C)(C)c1cc(C=C(C#N)C#N)cc(Br)c1O [AG-1024]
Kit
  Inhibition specificity towards pEY phosphorylation at 10X IC50, Kit: L (low inhibition (“L”=between 50–75% of the activity remaining))
EphB4
  Inhibition specificity towards pEY phosphorylation at 10X IC50, EphB4: L (low inhibition (“L”=between 50–75% of the activity remaining))

## COc1cc2ncnc(Nc3ccc(Cl)cc3F)c2cc1OC [VEGFR inhibitor]
Kit
  Inhibition specificity towards pEY phosphorylation at 10X IC50, Kit: L (low inhibition (“L”=between 50–75% of the activity remaining))
EphB4
  Inhibition specificity towards pEY phosphorylation at 10X IC50, EphB4: M (medium inhibition (“M”=between 25 to 50% of the activity remaining))

## Erbstatin analog
Kit
  Inhibition specificity towards pEY phosphorylation at 10X IC50, Kit: L (low inhibition (“L”=between 50–75% of the activity remaining))
EphB4
  Inhibition specificity towards pEY phosphorylation at 10X IC50, EphB4: L (low inhibition (“L”=between 50–75% of the activity remaining))
